Counter-ions that a name gives are not always drawn. Like-named read-outs stand apart in the source and are kept apart here.
Assays:
[1] = Further anticancer agents examined for synergistic effect in combined use with E7070; details: used in the compositions of the invention (with E7070); model and data not given
[2] = test system: Human colon cancer strain Colo320D.M.; experiment: Combined use of E7070 and 5-FU in human colon cancer Colo320D.M. xenograft model; details: for Toxicity Dead/Treated: Colo320D.M. xenograft, nude mice, E7070 30 mg/kg/day QDx5, 5-FU 60 mg/kg/day Q4Dx3
Description: (§1) J Natl Cancer Inst. Jun. 5, 1996;88(11):747-53; (iii) Effects of growth hormone and testosterone on cortical bone formation and bone density in aged orchiectomized rats. Bone. 1999 May;24(5):491-7).

[3] = test system: Human colon cancer strain HCT15; experiment: Combined use of E7070 and MMC in human colon cancer HCT15 xenograft model; details: for Tx4 (days) mean ± S.D.: time in days for tumor size to attain 4 folds of initial tumor size: HCT15 s.c. in nude mice, E7070 25 mg/kg/day i.v. QDx5 (day 1-5; combination row prints 30 mg/kg/day), MMC 4.19 mg/kg/day i.v. single dose (day 1); for Toxicity Dead/Treated: HCT15 xenograft, nude mice, E7070 QDx5, MMC 4.19 mg/kg/day QDx1
Description: as §1

[4] = test system: Human colon cancer strain SW620; experiment: Combined use of E7070 and CPT-11 in human colon cancer SW620 xenograft model; details: for Tx4 (days) mean ± S.D.: time in days for tumor size to attain 4 folds of initial tumor size: SW620 s.c. in nude mice, E7070 25 mg/kg/day i.v. QDx5, CPT-11 62.5 mg/kg/day i.v. Q4Dx3, + simultaneous (E7070 day 1-5, CPT-11 day 1, 5, 9), E7070 → CPT-11 (day 6, 10, 14), CPT-11 → E7070 (day 10-14); for Toxicity mRBW (minimum relative body weight) mean: parentheses: day when RBW was minimal
Description: as §1
E7070 alone was intravenously administered once per day for5 days (first to fifth days), while CPT-11 alone was intravenously administered 3 times (once every 4 days, that is, on the first, fifth and ninth days).

Human breast cancer HBC4 = experiment: Combined use of E7070 and capecitabine in human breast cancer HBC4 xenograft model; format: in vivo
Description: as §1

[5] = test system: Human non-small cell lung cancer LU-99; details: for Tx4 (days) mean ± S.D.: time in days for tumor size to attain 4 folds of initial tumor size: LU-99 s.c. in nude mice, E7070 25 mg/kg/day i.v. QDx5, CDDP 7.5 mg/kg/day i.v. single dose, + simultaneous (E7070 day 1-5, CDDP day 1), E7070 → CDDP (day 6), CDDP (day 1) → E7070 (day 2-6)
Description: as §1

[6] = test system: Human colon cancer strain HCT15; details: for Tx4 (days) mean ± S.D.: time in days for tumor size to attain 4 folds of initial tumor size: HCT15 s.c. in nude mice, E7070 30 mg/kg/day i.v. QDx5 (day 1-5), CPT-11 75 mg/kg/day i.v. Q4Dx3 (day 1, 5, 9); for Toxicity Dead/Treated: HCT15 xenograft, nude mice, E7070 30 mg/kg/day QDx5, CPT-11 75 mg/kg/day Q4Dx3
Description: as §1

[7] = SW620 xenograft, nude mice, E7070 25 mg/kg/day QDx5, CPT-11 62.5 mg/kg/day Q4Dx3
[8] = HBC4 xenograft, nude mice, E7070 30.625 mg/kg/day, capecitabine 1.3125 mmol/kg/day
[9] = LU-99 xenograft, nude mice, E7070 25 mg/kg/day QDx5, CDDP 7.5 mg/kg/day QDx1

## COc1cccc2c1C(=O)c1c(O)c3c(c(O)c1C2=O)C[C@@](O)(C(=O)CO)C[C@@H]3O[C@H]1C[C@H](N)[C@H](O)[C@H](C)O1 [doxorubicin, 10-[(3-amino-2,3,6-trideoxy-α-L-1yxo-hexopyranosyl)oxy]-7,8,9,10-tetrahydro-6,8,11-trihydroxy-8-(hydroxyacetyl)-1-methoxy-(8S-cis)-5,12-naphthacenedione]
[1]
  Antitumor activity when examined for synergistic effect (in words): excellent antitumor activity

## Nc1ccn([C@@H]2O[C@H](CO)[C@@H](O)C2(F)F)c(=O)n1 [gemcitabine hydrochloride, 2′-deoxy-2′,2′-difluoro-cytidine hydrochloride]
[1]
  Antitumor activity when examined for synergistic effect (in words): excellent antitumor activity

## NS(=O)(=O)c1ccc(S(=O)(=O)Nc2cccc3c(Cl)c[nH]c23)cc1 [E7070, N-(3-chloro-1H-indol-7-yl)-4-sulfamoylbenzenesulfonamide]
[2]; Colo320D.M. s.c. in nude mice, E7070 30 mg/kg/day i.v. QDx5, 5-FU 60 mg/kg/day i.v. Q4Dx3, + simultaneous (E7070 day 1-5, 5-FU day 1, 5, 9), E7070 → 5-FU (day 6, 10, 14), 5-FU → E7070 (day 10-14)
  Tx4 (days) mean ± S.D.: time in days for tumor size to attain 4 folds of initial tumor size: 11.2 ± 1.9 days
[2]
  Toxicity Dead/Treated: 0/6
[3]
  Tx4 (days) mean ± S.D.: time in days for tumor size to attain 4 folds of initial tumor size: 12.7 ± 2.2 days
  Toxicity Dead/Treated: 0/6
[4]
  Tx4 (days) mean ± S.D.: time in days for tumor size to attain 4 folds of initial tumor size: 30.2 ± 6.1 days
[4]; [7]
  Toxicity Dead/Treated: 0/6
  Toxicity mRBW (minimum relative body weight) mean: 0.98(8)
[4]; SW620 xenograft, nude mice, E7070 25 mg/kg/day QDx5, CPT-11 62.5 mg/kg/day Q4Dx3, parentheses: day when RTV was minimal
  mRTV (minimum relative tumor volume) mean ± S.D.: 0.76 ± 0.42(12)
Human breast cancer HBC4; HBC4 s.c. in nude mice, E7070 30.625 mg/kg/day (87.5% MTD) once per day for 5 days, capecitabine 1.3125 mmol/kg/day (87.5% MTD) once per day for 14 days, combination: E7070 day 1-5, capecitabine day 6-19
  Tx4 (days): time in days for tumor size to attain 4 folds of initial size: 50.0 ± 8.1 days
Human breast cancer HBC4; [8]
  CR, complete response: incidence of tumor free mice: 0/6
  PR, partial response: incidence of tumor regression (more than 50% of tumor regression): 6/6
  mRTV (minimum relative tumor volume): 0.24 ± 0.07
Human breast cancer HBC4; HBC4 xenograft, Tx4 of treated versus control, E7070 30.625 mg/kg/day, capecitabine 1.3125 mmol/kg/day
  T · C: 28.0 days
[5]
  Tx4 (days) mean ± S.D.: time in days for tumor size to attain 4 folds of initial tumor size: 18.2 ± 2.3 days
[5]; [9]
  Toxicity Dead/Treated: 0/6
  mRTV (minimum relative tumor volume) mean ± S.D.: 0.75 ± 0.16
[6]
  Tx4 (days) mean ± S.D.: time in days for tumor size to attain 4 folds of initial tumor size: 18.7 ± 2.0 days
  Toxicity Dead/Treated: 0/6

## CO[C@@]12[C@H](COC(N)=O)C3=C(C(=O)C(C)=C(N)C3=O)N1C[C@@H]1N[C@@H]12 [MMC, [1aS-(1aα,8β,8aα,8bα)]-6-amino-8-[[(aminocarbonyl)oxy]methyl]1,1a,2,8,8a,8b-hexahydro-8a-methoxy-5-methylazirino[2′,3′:3,4]pyrrolo[1,2-a]indole-4,7-dione, reference compound]
[3]
  Tx4 (days) mean ± S.D.: time in days for tumor size to attain 4 folds of initial tumor size: 16.2 ± 3.4 days
  Toxicity Dead/Treated: 0/6

## CCc1c2c(nc3ccc(OC(=O)N4CCC(N5CCCCC5)CC4)cc13)-c1cc3c(c(=O)n1C2)COC(=O)[C@]3(O)CC [CPT-11, [1,4′-Bipiperidine]-1′-carboxylic acid (S)-4,11-diethyl-3,4,12,14-tetrahydro-4-hydroxy-3,14-dioxo-1H-pyrano-[3′,4′:6,7]-indolizino[1,2-b]quinolin-9-yl ester Hydrochloride trihydrate, reference compound]
[4]
  Tx4 (days) mean ± S.D.: time in days for tumor size to attain 4 folds of initial tumor size: 48.7 ± 29.7 days
[4]; [7]
  Toxicity Dead/Treated: 0/6
  Toxicity mRBW (minimum relative body weight) mean: 0.99(8)
[6]
  Tx4 (days) mean ± S.D.: time in days for tumor size to attain 4 folds of initial tumor size: 17.8 ± 1.0 days
  Toxicity Dead/Treated: 0/6

## N.N.[Cl][Pt][Cl] [CDDP, cis-diamminedichloroplatinum, reference compound]
[5]
  Tx4 (days) mean ± S.D.: time in days for tumor size to attain 4 folds of initial tumor size: 10.7 ± 0.5 days

## O=c1[nH]cc(F)c(=O)[nH]1 [5-FU, 5-fluoro-2,4-(1H,3H)-pyrimidinedione, reference compound]
[2]
  Toxicity Dead/Treated: 0/6

Reference: patent publication US20030215523A1, “Medicinal compositions for concomitant use as anticancer agent” (priority 2000, published 2003)
